US9040266B2, “Cell-based systems for production of methyl formate” (The Regents of the University of California, priority 2009, dated 2015)

Legend:
A. fermentans = details: accumulation of fermentation products; cited from earlier work
[1] = target: methyl halide transferase (MHT) (Batis maritima, UniProt Q9ZSZ7); details: halide ion as substrate; Attieh et al. 1995, Ni and Hager 1999; cited from earlier work
RAD50Δ mutant = type: cell-based, Saccharomyces cerevisiae; details: RAD50Δ mutant versus W303a, OD600 at 24 hours
Excerpt: (§1) FIG. 11A-D: Methyl iodide production in recombinant S. cerevisiae. FIG. 11A. CH3I production pathway. The B. maritima MHT is expressed with a N-terminal vacuole targeting tag. The […] MHT methylates iodide ions using SAM as a methyl donor. FIG. 11B, CH3I measured in culture headspace over time. Activity on glucose-grown cells is shown. FIG. 11C, CH3I yields in grams per liter of culture per day. Values for the culturable red algae E. muricata are taken from the literature. Yields from B. maritime MHT-expressing E. coli and S. cerevisiae are calculated by comparison to standard curves. FIG. 11D, CH3I toxicity in yeast. Exponential phase cultures were diluted to an OD600 of 0.05 and commercially available CH3I was added. OD600 was measured at 24 hours of growth. The W303a lab strain is shown in filled boxes, the DNA methylation-sensitive RAD50Δ mutant is shown in open boxes.
(§2) The response of the host organism to toxic effects of an overproduced metabolite is important for development of an integrated industrial process. Methyl halides are SN2 methylating agents known to cause cytotoxic lesions in ssDNA and RNA. […]
(§3) Individual colonies were inoculated in YP media with 2% glucose and grown overnight. […] OD600 was measured by spectrometry with YP media used as a blank. […]

[2] = system: S. cerevisiae W303a lab strain; experiment: Methyl iodide toxicity assay in yeast; type: cell-based, Saccharomyces cerevisiae; details: cultures diluted to OD600 0.05, OD600 at 24 hours, FIG. 11D
Excerpt: as §1, §2, §3

[3] = system: methyl bromide and methyl iodide production in E. Coli; experiment: Methyl halide production by heterologous MHTs expressed in E. coli (Example 8, headspace GC/MS); type: cell-based; details: FIG. 7
Experimental: Nineteen methyl halide transferase genes from various organisms were codon-optimized and introduced into E. Coli. Production of methyl bromide and methyl iodide was determined for each. […] Group II UBA; Cryptococcus neoformans var. neoformans JEC21; Oryza sativa (japonica cultivar-group); Ostreococcus tauri; Dechloromonas aromatica RCB; Coprinopsis cinerea okayama; Robiginitalea bofirmata HTCC2501; Maricaulis maris MCS10; Flavobacteria bacterium BBFL7; Vitis vinifera and; halorhodospira halophila SL1.
For each strain a single colony was picked and grown overnight (10-14 hrs) in 20 mL of LB miller in a 30 mL glass test tube with aeration (a loose cap) at 37 C and 250 rpm shaking. The culture was spun down in a swinging bucket centrifuge for 5 min @ 3000×g. The cells were resuspended in 20mL of appropriate media (10 g/L Tryptone, 5 g/L Yeast Extract, 165 mM NaX [where X=CI, Br, I]) containing 100 uM IPTG inducer. The cells were sealed with rubber stoppers and parafilm and grown at 37 C with 250 rpm shaking for 1.5 hours. Cultures were taken to the GC/MS and 100 uL of headspace gas was sampled and loaded onto the column. The method run was VOIGT.m. The number of counts for the appropriate mass (MeCl, MeBr, MeI) were reported. Cells were always grown in the presence of 30 ug/mL chloramphenicol.
Methyl halide production was measured as described in the previous Examples. […] C. neoformans JEC21 gave the best methyl bromide and methyl iodide production. Leptospirillum gave the best methyl iodide production.

[4] = system: methyl halide production in E. coli on chloride, bromide and iodide; experiment: MHT library screen for methyl halide activity in E. coli (Example 9B); type: cell-based; details: library of 89 genes, FIG. 10A
Excerpt: As described in Example 9A, to screen for MHTs with high activity in a recombinant host, we synthesized all putative MHTs from the NCBI sequence database and assayed methyl halide production in E. colit. […] These genes were computationally codon optimized for E. coli and yeast expression and constructed using automated whole gene DNA synthesis.
Methyl halide production was sampled by analyzing the headspace gas using GC-MS (Supplementary Information).
Bacteria carrying MHT expression vectors were inoculated from freshly streaked plates and grown overnight. Cells were diluted 100-fold into media containing 1 mM IPTG and 100 mM appropriate sodium halide salt. Culture tubes were sealed with a rubber stopper and grown at 37 degrees for 3 hours. Yeast carrying MHT expression vectors were streaked on uracil dropout plates from freezer stocks (15% glycerol) and grown for 48 hours. Individual colonies were inoculated into 2 mL of synthetic complete uracil dropout media and grown overnight at 30 degrees. Cultures were next inoculated into 100 mL fresh synthetic complete uracil dropout media and grown for 24 hours. Cells were spun down and concentrated to high cell density (OD 50) in fresh YP media with 2% glucose and 100 mM sodium iodide salt. 10 mL of this concentrated culture was aliquoted into 14 mL culture tubes and sealed with a rubber stopper. […]

Q: Which A. fermentans growth (A. fermentans) does the source give for `CC(=O)O` [acetate] here?
A: Its A. fermentans growth is “inhibited”.

Q: For `[Br-].[K+]` [Br^−, bromide], which Km [1] is on record?
A: Its Km is 18.5 mM.

Q: With `CCO` [ethanol] as the molecule, how does the A. fermentans growth (A. fermentans) read?
A: Its A. fermentans growth is “inhibited”.

Q: Which Km [1] does the source give for `I` [I^−, iodide] here?
A: Its Km is 8.5 mM.

Q: What does the source list for `CI` [methyl iodide]?
A: sensitivity to methyl iodide (RAD50Δ mutant): increased sensitivity; level up to which yeast were resistant to deleterious methylating effects of methyl iodide [2]: > 5 g/L

B1: B. maritima: methyl halide transferase from Batis maritima, SEQ ID NO: 3 (protein, listed as Batis maritima)
chain: MSTVANIAPVFTGDCKTIPTPEECATFLYKVVNSGGWEKCWVEEVIPWDLGVPTPLVLHLVKNNALPNGKGLVPGCGGGYDVVAMANPERFMVGLDISENALKKARETFSTMPNSSCFSFVKEDVFTWRPEQPFDFIFDYVFFCAIDPKMRPAWGKAMYELLKPDGELITLMYPITNHEGGPPFSVSESEYEKVLVPLGFKQLSLEDYSDLAVEPRKGKEKLARWKKMNN
Q: For B1, which methyl bromide production ([3]; 165 mM NaX, 100 uM IPTG, 1.5 hours) is on record?
A: The methyl bromide production was “best”.

Q: What about the “halide specificity of methyl halide production” value [3] of the same molecule?
A: The value was “significant specificity for methyl bromide production”.

Q: What about the “methyl halide activity on each ion (chloride, bromide, iodide)” value [4] of the same molecule?
A: The value was “highest activity”.
